Laboratory results as given in ChEMBL document CHEMBL1136083, “Potent Grb2-SH2 domain antagonists not relying on phosphotyrosine mimics” (Bioorg Med Chem Lett, 2003).
*1 amine or outer side, *2 acyl side, *3 side chain or, on linkers, in order; H or OH if unused. Where a SMILES comes first, the peptide text is derived from it. Bridges are numbered along the chain shown (N, C = ends). [ ]: non-standard residue; d: D form. Gla = N[C@@H](CC(C(=O)O)C(=O)O)C(=O)O; X1 = O=C([C@]1(N[*:1])CC2CCC1C2)[*:2]

What follows are compounds tested against T1, Growth factor receptor-bound protein 2 (Homo sapiens, UniProt P62993) (assay: Binding affinity against Growth factor receptor bound protein 2 using ELISA assay).

IC50 | SMILES
1510 nM | CSCC[C@H]1NC(=O)CNC(=O)[C@@H](C(C)C)NC(=O)[C@H](CC(N)=O)NC(=O)[C@@H](CCCC(=O)O)NC(=O)[C@H](Cc2ccc(O)cc2)NC(=O)[C@@H](CC(C)C)NC(=O)[C@H](CC(C(=O)O)C(=O)O)NC(=O)CSC[C@@H](C(N)=O)NC(=O)[C@H](Cc2ccc(O)cc2)NC1=O
730 nM | CSCC[C@@H]1NC(=O)CNC(=O)[C@H](C(C)C)NC(=O)[C@H](CC(N)=O)NC(=O)[C@@]2(CC3CCC2C3)NC(=O)[C@H](Cc2ccc(O)cc2)NC(=O)[C@H](CC(C)C)NC(=O)[C@H](CC(C(=O)O)C(=O)O)NC(=O)CSC[C@@H](C(N)=O)NC(=O)[C@H](Cc2ccc(O)cc2)NC1=O (some centres not stated) ({CH2CO}-[Gla]LY[X1]NVGMYC-NH2; thioether N-10)
74.6 nM | CC(C)C[C@H]1NC(=O)[C@H](CC(C(=O)O)C(=O)O)NC(=O)C[S+]([O-])C[C@@H](C(N)=O)NC(=O)[C@H](Cc2ccc(O)cc2)NC(=O)[C@@H](CC(C)(C)C)NC(=O)CNC(=O)[C@@H](C(C)C)NC(=O)[C@H](CC(N)=O)NC(=O)C2(CCCCC2)NC(=O)[C@H](Cc2ccc(O)cc2)NC1=O (stereo in doubt; 12)
991 nM | CSCC[C@H]1NC(=O)CNC(=O)[C@@H](C(C)C)NC(=O)[C@H](CC(N)=O)NC(=O)[C@@H](CCC(=O)O)NC(=O)[C@H](Cc2ccc(O)cc2)NC(=O)[C@@H](CC(C)C)NC(=O)[C@H](CC(C(=O)O)C(=O)O)NC(=O)CSC[C@@H](C(N)=O)NC(=O)[C@H](Cc2ccc(O)cc2)NC1=O
7830 nM | CSCC[C@@H]1NC(=O)CNC(=O)[C@H](C(C)C)NC(=O)[C@H](CC(N)=O)NC(=O)[C@@H]2CCCN2C(=O)[C@H](Cc2ccc(O)cc2)NC(=O)[C@H](CC(C)C)NC(=O)[C@H](CCC(=O)O)NC(=O)CSC[C@@H](C(N)=O)NC(=O)[C@H](Cc2ccc(O)cc2)NC1=O (HELM PEPTIDE1{[O=C(C[*:3])[*:2]].E.L.Y.P.N.V.G.M.Y.C.[am]}$PEPTIDE1,PEPTIDE1,1:R3-11:R3$$$V2.0)
1410 nM | CC(C)C[C@H]1NC(=O)[C@H](CC(C(=O)O)C(=O)O)NC(=O)C[S+]([O-])C[C@@H](C(N)=O)NC(=O)[C@H](Cc2ccc(O)cc2)NC(=O)[C@@H](C2CCCCC2)NC(=O)CNC(=O)[C@@H](C(C)C)NC(=O)[C@H](CC(N)=O)NC(=O)C2(CCCCC2)NC(=O)[C@H](Cc2ccc(O)cc2)NC1=O (stereo in doubt; 17)
4860 nM | CC(C)C[C@H]1NC(=O)[C@H](CC(C(=O)O)C(=O)O)NC(=O)C[S+]([O-])C[C@@H](C(N)=O)NC(=O)[C@H](Cc2ccc(O)cc2)NC(=O)[C@@H](Cc2ccc3ccccc3c2)NC(=O)CNC(=O)[C@@H](C(C)C)NC(=O)[C@H](CC(N)=O)NC(=O)C2(CCCCC2)NC(=O)[C@H](Cc2ccc(O)cc2)NC1=O (stereo in doubt; 15)
244 nM | CC(C)C[C@H]1NC(=O)[C@H](CC(C(=O)O)C(=O)O)NC(=O)CSC[C@@H](C(N)=O)NC(=O)[C@H](Cc2ccc(O)cc2)NC(=O)[C@@H](CC(C)(C)C)NC(=O)CNC(=O)[C@@H](C(C)C)NC(=O)[C@H](CC(N)=O)NC(=O)C2(CCCCC2)NC(=O)[C@H](Cc2ccc(O)cc2)NC1=O
149 nM | CC(C)C[C@H]1NC(=O)[C@H](CC(C(=O)O)C(=O)O)NC(=O)C[S+]([O-])C[C@@H](C(N)=O)NC(=O)[C@H](Cc2ccc(O)cc2)NC(=O)[C@@H](C2CCCCC2)NC(=O)CNC(=O)[C@@H](C(C)C)NC(=O)[C@H](CC(N)=O)NC(=O)C2(CCCCC2)NC(=O)[C@H](Cc2ccc(O)cc2)NC1=O (stereo in doubt; 16)
> 100000 nM | CSCC[C@@H]1NC(=O)CNC(=O)[C@H](C(C)C)NC(=O)[C@H](CC(N)=O)NC(=O)[C@H](CCC(=O)O)NC(=O)[C@H](Cc2ccc(O)cc2)NC(=O)[C@H](CC(C)C)NC(=O)[C@H](CCC(=O)O)NC(=O)CSC[C@@H](C(N)=O)NC(=O)[C@H](Cc2ccc(O)cc2)NC1=O (HELM PEPTIDE1{[O=C(C[*:3])[*:2]].E.L.Y.E.N.V.G.M.Y.C.[am]}$PEPTIDE1,PEPTIDE1,1:R3-11:R3$$$V2.0)
525 nM | CSCC[C@H]1NC(=O)CNC(=O)[C@@H](C(C)C)NC(=O)[C@H](CC(N)=O)NC(=O)C2(CCCCC2)NC(=O)[C@H](Cc2ccc(O)cc2)NC(=O)[C@@H](CC(C)C)NC(=O)[C@H](CC(C(=O)O)C(=O)O)NC(=O)CSC[C@@H](C(N)=O)NC(=O)[C@H](Cc2ccc(O)cc2)NC1=O
238 nM | CC(C)C[C@H]1NC(=O)[C@H](CC(C(=O)O)C(=O)O)NC(=O)CSC[C@@H](C(N)=O)NC(=O)[C@H](Cc2ccc(O)cc2)NC(=O)[C@@H](Cc2c(F)c(F)c(F)c(F)c2F)NC(=O)CNC(=O)[C@@H](C(C)C)NC(=O)[C@H](CC(N)=O)NC(=O)C2(CCCCC2)NC(=O)[C@H](Cc2ccc(O)cc2)NC1=O
314 nM | CC(C)C[C@H]1NC(=O)[C@H](CC(C(=O)O)C(=O)O)NC(=O)C[S+]([O-])C[C@@H](C(N)=O)NC(=O)[C@H](Cc2ccc(O)cc2)NC(=O)[C@@H](Cc2ccc3ccccc3c2)NC(=O)CNC(=O)[C@@H](C(C)C)NC(=O)[C@H](CC(N)=O)NC(=O)C2(CCCCC2)NC(=O)[C@H](Cc2ccc(O)cc2)NC1=O (stereo in doubt; 14)
747 nM | CC(C)C[C@H]1NC(=O)[C@H](CC(C(=O)O)C(=O)O)NC(=O)C[S+]([O-])C[C@@H](C(N)=O)NC(=O)[C@H](Cc2ccc(O)cc2)NC(=O)[C@@H](CC(C)(C)C)NC(=O)CNC(=O)[C@@H](C(C)C)NC(=O)[C@H](CC(N)=O)NC(=O)C2(CCCCC2)NC(=O)[C@H](Cc2ccc(O)cc2)NC1=O (stereo in doubt; 13)
502 nM | CC(C)C[C@H]1NC(=O)[C@H](CC(C(=O)O)C(=O)O)NC(=O)CSC[C@@H](C(N)=O)NC(=O)[C@H](Cc2ccc(O)cc2)NC(=O)[C@@H](Cc2ccc(-c3ccccc3)cc2)NC(=O)CNC(=O)[C@@H](C(C)C)NC(=O)[C@H](CC(N)=O)NC(=O)C2(CCCCC2)NC(=O)[C@H](Cc2ccc(O)cc2)NC1=O
271 nM | CC(C)C[C@H]1NC(=O)[C@H](CC(C(=O)O)C(=O)O)NC(=O)CSC[C@@H](C(N)=O)NC(=O)[C@H](Cc2ccc(O)cc2)NC(=O)[C@@H](Cc2ccc3ccccc3c2)NC(=O)CNC(=O)[C@@H](C(C)C)NC(=O)[C@H](CC(N)=O)NC(=O)C2(CCCCC2)NC(=O)[C@H](Cc2ccc(O)cc2)NC1=O

The compounds below were run against T1, Growth factor receptor-bound protein 2 (assay: Inhibitory activity against Growth factor receptor bound protein 2 using ELISA assay).

IC50 | SMILES
20000 nM | CSCC[C@@H]1NC(=O)CNC(=O)[C@H](C(C)C)NC(=O)[C@H](CC(N)=O)NC(=O)[C@H](CCC(=O)O)NC(=O)[C@H](Cc2ccc(O)cc2)NC(=O)[C@H](CC(C)C)NC(=O)[C@H](CCC(=O)O)NC(=O)CSC[C@@H](C(N)=O)NC(=O)[C@H](Cc2ccc(O)cc2)NC1=O (HELM PEPTIDE1{[O=C(C[*:3])[*:2]].E.L.Y.E.N.V.G.M.Y.C.[am]}$PEPTIDE1,PEPTIDE1,1:R3-11:R3$$$V2.0)
